Experimental data taken from patent US10646565B2, “Treatment of alzheimer'S disease (AD) with an aluminum salt” (AFFIRIS AG, priority 2014, dated 2020).
Entries after “also recorded” stand apart in the source; their conditions may differ.

Experiments:
[1] = aluminium oxyhydroxide; cited from earlier work
Ovalbumin = target: T1, Ovalbumin (Gallus gallus, UniProt P01012); conditions: pH 7.4; cited from earlier work
T1 sequence (P01012 1-386): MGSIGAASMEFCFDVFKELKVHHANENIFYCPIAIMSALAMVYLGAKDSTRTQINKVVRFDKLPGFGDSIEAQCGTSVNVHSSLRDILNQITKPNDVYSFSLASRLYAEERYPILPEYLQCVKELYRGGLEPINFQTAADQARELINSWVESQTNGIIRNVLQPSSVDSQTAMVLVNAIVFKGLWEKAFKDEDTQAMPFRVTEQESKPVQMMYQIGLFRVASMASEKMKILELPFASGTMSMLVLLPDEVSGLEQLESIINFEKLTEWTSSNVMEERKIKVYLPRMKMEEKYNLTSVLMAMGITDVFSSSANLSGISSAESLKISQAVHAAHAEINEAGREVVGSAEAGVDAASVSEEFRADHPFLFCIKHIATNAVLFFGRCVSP

Tg2576 mice = assay: Contextual fear conditioning (CFC) in Tg2576 mice; conditions: 6 monthly s.c. injections, Alum equivalent to 2 mg/ml
BSA = BSA (Bos taurus, UniProt P02769); conditions: pH 7.4; cited from earlier work
human Aβ1-40/42 = assay: ELISA reactivity of vaccination induced Abs towards human Aβ1-40/42 in Tg2576-mice; type: in vivo; conditions: 6x s.c. at 4-week intervals, plasma at sacrification, background 1/100, FIG. 6B
Protocol: Alum doses used were equivalent to 2 mg/ml. Vaccination induced Abs were measured in plasma samples taken at sacrification (SeqID 1 (n=10), SeqID (n=8), KLH-Alum (n=10) and Alum only (n=8)). Samples were analyzed for their concentration of IgG Abs against specific peptides. Values depicted are the titer calculated as OD max/2 (at 405 nm) plus SEM. […] Background for this assay was set to 1/100, indicated by black lines and an asterisk in A+B.
Substrates used include human (BACHEM, CH) Aβ1-40/42 (at 5 μg/ml), KLH (1 μg/ml) and peptide-Bovine serum albumin (BSA) conjugates (SeqID 1 and SeqID 2, 1 μM). Optical density (OD) was measured at 405 nm using a micro-well reader (Tecan, CH). ODmax/2 was calculated.
To test the immunogenicity of two Aβ targeting vaccines SeqID 1-KLH-Alum and SeqID 2-KLH Alum in comparison to KLH-Alum and Alum (Aluminium-oxyhydroxide) only, Tg2576-mice were injected 6×, s.c., at 4-week intervals with either conjugate-vaccine containing 30 μg net peptide, equivalent doses of KLH formulated with Alum or Alum only.

patients with early AD [2] = assay: AFF006 clinical trial: Quality of Life (QOL) caregiver; type: in vivo, human; conditions: 2 mg compared to 1 mg and other groups, over a period of 18 months, FIG. 5
From the text: Caregivers completed the measure as a questionnaire about their patients' QOL. The measure consisted of 13 items, rated on a 4 point scale, with 1 being poor and 4 being excellent. Outcomes are shown as the change over time using a least squares means from a mixed model.
QOL caregiver is a brief, 13-item questionnaire designed to specifically obtain a rating of the QOL of the patient from the caregiver's perspective. Questions cover relationships with friends and family, concerns about finances, physical condition, mood, and an overall assessment of life quality. All items are rated on a four-point scale, with 1 being poor and 4 being excellent. The total score is the sum of all items, which can range from 13 to 52. QOL caregiver values are presented here as the change from baseline. Outcomes were measured at Visits 1, 6, 8, and 10.

amyloid deposits = assay: Cerebral amyloid load by immunofluorescence (mAb 3A5) in Tg2576 mice; type: in vivo; conditions: 6 monthly s.c. injections, sacrificed at 14 months of age
patients with early AD [3] = assay: AFF006 clinical trial: adverse event summary of local reactions; type: in vivo, human
Protocol: AFF006 was conducted as a randomized, placebo-controlled, parallel group, double-blind, multi-center phase II study and assessed the clinical and immunological activity as well as the safety and tolerability of repeated s.c. administrations of i.a. aluminium (different doses) in patients with early AD, as defined in the protocol. It was performed in a total of 6 countries: Austria, France, Germany, Slovakia, Czech Republic and Croatia.
The clinical trial comprised 10 regular outpatient visits and 6 telephone interviews. Up to four weeks before start of treatment, a screening visit (Visit 1) was performed to ensure suitability of the patients for the clinical trial and to establish the patients' baseline characteristics. Following screening, eligible patients were randomly allocated to the treatment groups. After randomization at week 0, patients received 6 injections with either 1 or 2 mg aluminium. Injections were applied s.c. by the investigator at weeks 0, 4, 8, 12, 40 and 65 (Visit 2, 3, 4, 5, 7 and 9).
At Visits 2, 3, 4, 5, 6, 7 and 9 possible local and systemic reactions to the vaccine and vital signs (blood pressure, heart rate, respiratory rate and body temperature) were assessed. In addition, a physical and neurological examination was performed. Efficacy parameters were assessed at Visits 1, 2, 3, 5, 6, 7, 8, 9, 10. The final visit (Visit 10) was performed twelve weeks after the last administration of study drug (Visit 9). An early discontinuation visit (EDV) was performed when a patient discontinued from the clinical trial.
During the study Visits 2, 3, 4, 5, 7 and 9 the patient received study drug by the investigator, in total: six injections over a 65-week treatment period. Injections were applied to the external surface of the upper arm, approximately 8-10 cm above the elbow. Prerequisite regarding the actual site was the presence of an intact regional lymph node station. If the draining lymph node stations of both upper arms were not intact, injection was placed into the thigh close to the inguinal lymph nodes. Two alternating injection sites (e.g. left and right upper arm, left upper arm and left thigh) were used throughout the 6 injections.
Injections were applied to the subcutaneous tissue (s.c.). Special care was taken to avoid […] application by careful aspiration before each injection. All administrations were performed at the trial site.
Safety evaluations included the following:
adverse events (AEs) and serious adverse events (SAEs) (number of patients who withdrew due to AEs; reason for withdrawal)

patients with early AD [4] = assay: AFF006 clinical trial: MRI volume-based morphometry of hippocampus; type: in vivo, human; conditions: 2 mg group of patients, FIG. 4
From the text: EMEA and FDA criteria recommend newer techniques, such as MRI, especially atrophy of entorhinal or (para-) hippocampal cortex. With the present invention, PET (Positron emission tomography)-MRI was applied. More specifically, volume of right hippocampus (important for learning and memory of material that is difficult to verbalise) is used according to the present invention as significant AD biomarker for treatment success.
Hippocampus (left and right), and whole lateral ventricle ROIs were delineated on an anatomical MRI template in order to generate the atlas for volumetric measures. The volumes of the hippocampus and lateral ventricles for each subject were determined using a fully-automated method which combines transformations derived from the nonlinear registration of the atlas labels to individual subject scans and subject-specific image information (Collins et al., J. Comput. Assist. Tomogr., 18: 192-205, 1994). Lateral ventricle and hippocampal segmentations that failed post-processing QC review were manually corrected. The total intracranial volume (TIV) was estimated from the brain mask generated during pre-processing and the average TIV (TIVavg) for each subject was determined by averaging the estimated TIV across visits. […]

Chain of BSA (P02769 25-607): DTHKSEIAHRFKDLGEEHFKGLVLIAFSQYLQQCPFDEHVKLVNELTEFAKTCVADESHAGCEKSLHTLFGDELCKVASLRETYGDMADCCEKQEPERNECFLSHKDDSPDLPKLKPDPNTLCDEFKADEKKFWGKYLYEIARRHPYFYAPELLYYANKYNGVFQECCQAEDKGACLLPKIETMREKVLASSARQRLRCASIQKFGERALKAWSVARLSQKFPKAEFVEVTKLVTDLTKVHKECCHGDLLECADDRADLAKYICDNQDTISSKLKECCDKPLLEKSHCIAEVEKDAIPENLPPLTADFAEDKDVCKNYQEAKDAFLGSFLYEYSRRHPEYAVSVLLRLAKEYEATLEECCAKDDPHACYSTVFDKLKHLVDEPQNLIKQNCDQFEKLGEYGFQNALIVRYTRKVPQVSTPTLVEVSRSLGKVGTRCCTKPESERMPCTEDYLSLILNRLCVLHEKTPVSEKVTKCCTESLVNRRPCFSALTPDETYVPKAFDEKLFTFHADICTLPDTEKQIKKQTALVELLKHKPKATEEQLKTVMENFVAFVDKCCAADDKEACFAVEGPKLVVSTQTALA

aluminium oxyhydroxide
point of zero charge [1]: ~11 pH | maximal binding capacity to Ovalbumin (pI 4.6) (Ovalbumin): 1.6±0.1 mg protein/mg aluminum | contextual memory and learning (CFC, % of time freezing) (Tg2576 mice; FIG. 7, listed as Alum): showed similar effects as detectable with Aβ targeting vaccines | contextual memory and learning (CFC, % of time freezing) (Tg2576 mice; FIG. 7, listed as aluminium-oxyhydroxide): lower cognitive decline significantly | maximal binding capacity to BSA (pI 4.9) (BSA): 2.2±0.1 mg protein/mg aluminum | Abs reactivity towards human Aβ1-40/42 (human Aβ1-40/42): did not elicit signals above background; also recorded: do not show reactivity above background | QOL of the patient rated by caregivers (QOL-AD) (patients with early AD [2]): significantly improved | cerebral amyloid load (relative brain area covered by amyloid deposits) (amyloid deposits; IF-staining mAb 3A5, FIG. 8, listed as Alum): did not significantly alter amyloid deposition; also recorded: slight but insignificant reduction in Aβ deposition | cerebral amyloid load (relative brain area covered by amyloid deposits) (amyloid deposits; IF-staining mAb 3A5, FIG. 8, listed as aluminium-oxyhydroxide): without significantly changing cerebral Aβ levels | Musculoskeletal and Connective Tissue Disorders: Pain in Extremity: events (patients with early AD [3]; 1 mg s.c., N = 48): 0 | Musculoskeletal and Connective Tissue Disorders: Pain in Extremity: subjects % (patients with early AD [3]; 1 mg s.c., N = 48): 0.0% | Musculoskeletal and Connective Tissue Disorders: Pain in Extremity: subjects n (patients with early AD [3]; 1 mg s.c., N = 48): 0 | Vascular Disorders: Haematoma: subjects n (patients with early AD [3]; 1 mg s.c., N = 48): 0 | Musculoskeletal and Connective Tissue Disorders: Pain in Extremity: events (patients with early AD [3]; 2 mg s.c., N = 51): 1 | Musculoskeletal and Connective Tissue Disorders: Pain in Extremity: subjects n (patients with early AD [3]; 2 mg s.c., N = 51): 1 | Vascular Disorders: Haematoma: subjects n (patients with early AD [3]; 2 mg s.c., N = 51): 0 | MRI data (volume of right hippocampus) (patients with early AD [4]): statistically significant disease modifying effect
